Test results taken from patent US9290473B2, “Inhibitors of phosphatidylinositol-3-kinase (PI3) and inducers of nitric oxide (NO)” (COUCIL OF SCIENTIFIC & INDUSTRIAL RESEARCH, priority 2009, dated 2016).
Like-named read-outs stand apart in the source and are kept apart here.

How the values were obtained:
[1] = test system: chronic myeloid leukemia cell line K562; experiment: Cell viability, trypan blue exclusion, K562; assay type: cell-based; conditions: Homo sapiens
Excerpt: (§1) Following cancer cell lines were used: chronic myeloid leukemia cell lines K562, KU812; acute myeloid leukemia cell lines HL60, U937; T-lymphoblastic leukemia cell line Molt-4; prostate cancer cell line PC-3; breast cancer cell line MCF-7; pancreatic cancer cell line MIA PaCa-2. These cancer cell lines were maintained in tissue culture in standard growth medium containing 10% heat-inactivated fetal bovine serum (FBS). Normal human peripheral blood mononuclear cells (PBMC) were separated from whole blood by Ficoll/Hypaque density gradient centrifugation. Peripheral blood samples were collected from normal donors with due approval from the Human Ethics Committee of Indian Institute of Chemical Biology, Kolkata, India, and all experiments with human blood were conducted under an approved institutional Human Ethics committee protocol. Informed consent was provided according to the Declaration of Helsinki. Cancer cell lines and PBMC (5×10^3) in triplicate were incubated in 0.2 mL of standard growth medium containing 10% FBS with varying concentrations of test compounds of the present invention. After 72 hours of incubation, cells were collected by centrifugation (at 1000 g for 5 minutes) and cell-viability was determined by the trypan blue exclusion assay. At least 200 cells were examined in each sample. Because of monolayer culture, treated and untreated PC-3, MCF-7 and MIA PaCa-2 cells were detached from the wells by treatment with Cell Dissociation Solution (Sigma Chemical, St. Louis, Mo.) before counting. Data are represented as IC50 (minimum concentration required to inhibit the viability by 50%) in Table 5.

[2] = test system: chronic myeloid leukemia cell line KU812; experiment: Cell viability, trypan blue exclusion, KU812; assay type: cell-based; conditions: Homo sapiens, 72 hours incubation
Excerpt: as §1

[3] = test system: acute myeloid leukemia cell line HL60; experiment: Cell viability, trypan blue exclusion, HL-60; assay type: cell-based; conditions: Homo sapiens
Excerpt: as §1

[4] = test system: T-lymphoblastic leukemia cell line Molt-4; experiment: Cell viability, trypan blue exclusion, Molt-4; assay type: cell-based, human
Excerpt: as §1

[5] = test system: prostate cancer cell line PC-3; experiment: Cell viability, trypan blue exclusion, PC-3; assay type: cell-based, human; conditions: 72 hours incubation
Excerpt: as §1

[6] = test system: breast cancer cell line MCF-7; experiment: Cell viability, trypan blue exclusion, MCF-7; assay type: cell-based, human
Excerpt: as §1

[7] = test system: pancreatic cancer cell line MIA PaCa-2; experiment: Cell viability, trypan blue exclusion, MIA PaCa-2; assay type: cell-based, human; conditions: read-out: Activity (IC50) MIAPaCa-2
Excerpt: as §1

[8] = test system: Normal human peripheral blood mononuclear cells (PBMC); experiment: Cell viability, trypan blue exclusion, normal PBMC; assay type: cell-based; conditions: 72 hours incubation
Excerpt: as §1

[9] = test system: acute myeloid leukemia cell line U937; experiment: Cell viability, trypan blue exclusion, U937; assay type: cell-based; conditions: Homo sapiens, U-937, 72 hours incubation
Excerpt: as §1

[10] = Sensitivity to spontaneous autooxidation (H2O2 level, TMB reagent); assay type: physicochemical; conditions: 30 µM, 30 min and 2 hr in medium alone, with and without Catalase; H2O2 in supernatant
Method: Spontaneous autooxidation of compounds having phenolic groups produce reactive oxygen species like H2O2. The enzyme Catalase breaks down H2O2 to water, We therefore incubated Compound 1 and 7 (30 µM each) for 30 min and 2 hr in medium alone in the presence and absence of Catalase. Level of H2O2 in the supernatant was then measured as reported using 3,5,3′,5′-tetramethylbenzidine (TMB) reagent (Plant Physiology, 2004, 136, 3114-3123). FIG. 1 represents the data of sensitivity of spontaneous autooxidation of Compound 1 and Compound 7.

U937 cells = experiment: Morphology and apoptosis/necrosis in U937 cells (Giemsa; annexin V-FITC/PI flow cytometry); assay type: cell-based, human; conditions: Compound No.1 30 μM, Compound No.7 15 μM, 24 hours, annexin V-FITC/PI
Method: U937 cells were treated with standard growth medium alone or with standard growth medium containing hydroxychavicol (30 μM) for 24 hours. Treated and untreated cells were stained with Giemsa and viewed under microscope (magnification ×1000). For measurement of apoptosis/necrosis, cells were left untreated or treated with Compound No. 1 (30 μM) or Compound No.7 (15 μM) for 24 hours. After washing, cells were stained with fluorescein isothiocyanate (FITC)-conjugated annexin V and propidium iodide (PI) and analysed in a flow cytometer (BD LSR, Becton Dickinson).
FIG. 2B indicates flow cytometric determination of apoptosis and necrosis by Compound No.1 (hydroxychavicol) and Compound No.7. Apoptosis and necrosis of U937 cells were induced. Cells were left untreated (extreme left panel), or incubated with Compound No.1 (30 μM) (middle panel) or Compound No.7 (extreme right panel) (15 μM) for 24 hours and processed for flow cytometry after staining with annexin V-FITC and propidium iodide (PI). Viable cells are in the lower left quadrant (stained neither by annexin V nor by PI), early apoptotic cells (stained by annexin V only) are in the lower right quadrant, late-stage apoptotic cells (stained by both annexin V and PI) are in the upper right quadrant and the necrotic cells (stained by PI only) are in the upper left quadrant.

normal human PBMC = experiment: Apoptosis/necrosis of normal human PBMC by flow cytometry; assay type: cell-based; conditions: 30 μM, 24 hours
Method: FIG. 2C indicates flow cytometric determination of apoptosis and necrosis of normal human PBMC by Compound 1 (30 μM) and Compound 7 (30 μM) after incubation for 24 hours.

[11] = test system: Ehrlich ascites carcinoma (EAC); experiment: Ehrlich ascites carcinoma (EAC) model in vivo; conditions: 30 mg/kg body weight intraperitoneally thrice a week for three weeks, Swiss albino mice
Excerpt: The in vitro studies indicate that hydroxychavicol and other compounds of the present invention induce killing of a variety of cancer cell lines including breast cancer cell line MCF-7 (Table 5). The MCF-7 cell line is of epithelial origin. Studies were extended in vivo in mouse model for a tumor of epithelial origin. Ehrlich ascites carcinoma is a tumor of epithelial origin (Cancer Research, 1958, 18, 1167-1185). EAC was established in Swiss albino mice as described (Biochemical and Biophysical Research Communications, 2001, 288, 658-665). Swiss albino mice were injected with EAC (2×10^6 cells/mouse) intraperitoneally. 2 days post-injection of tumor cells, these mice (5 per group) were injected intraperitoneally with Compound No. 1 (hydroxychavicol) (30 mg/kg body weight) or Compound No. 7 (30 mg/kg body weight) thrice a week for three weeks. One week after the last injection, mice were sacrificed, and viable cells from peritoneal cavity were counted microscopically. Vehicle (dimethyl sulphoxide [DMSO], 0.1%) was used as control.

[12] = K562, 72 hours incubation, trypan blue exclusion, read-out: Activity (IC50) K562
[13] = read-out: IC50 against chronic myeloid leukemia cancer cell lines (K562), range over both cell lines K562, KU812 and KU812 and over the listed compounds, read-out: IC50 against chronic myeloid leukemia cancer cell lines (K562, KU812)
[14] = 72 hours incubation, trypan blue exclusion, read-out: Activity (IC50) HL-60
[15] = range over both cell lines HL60 and U937 and over the listed compounds, read-out: IC50 against acute myeloid leukemia cancer cell line (HL60, U937)
[16] = Homo sapiens, MOLT-4, 72 h, 72 hours incubation
[17] = Homo sapiens, MCF7, 72 h, 72 hours incubation
[18] = Homo sapiens, MIA PaCa-2, 72 h, 72 hours incubation

Row | SMILES | IC50 [1, 12] | IC50 [1, 13] | IC50 [2] | IC50 [3, 14] | IC50 [3, 15] | IC50 ([4]; 72 hours incubation) | IC50 [4, 16] | IC50 ([5]; Homo sapiens, 72 h) | IC50 ([6]; 72 hours incubation) | IC50 [6, 17] | IC50 [7, 18] | IC50 [8] | IC50 [9] | IC50 [5] | further results
1 | C=CCc1cc(O)c(O)cc1CC=C [Compound 2, 4,5-diallylbenzene-1,2-diol] | 13 µM | 13 to 52 µM | 25 µM | 25 µM | 13 to 60 µM | 30 µM | 15 to 50 µM | 25 to 70 µM | 40 µM | 25 to 70 µM | 30 to 70 µM | – | – | – | –
2 | C=CCc1ccc(O)c(O)c1CC=C [Compound 3, 3,4-diallylbenzene-1,2-diol] | 52 µM | 13 to 52 µM | – | 60 µM | 13 to 60 µM | 50 µM | – | 25 to 70 µM | 70 µM | – | – | 80 µM | – | – | IC50 ([7]; 72 hours incubation): 70 µM
3 | C=CCc1ccc(OC(C)=O)c(OC(C)=O)c1 [Compound 7, 4-allyl-1,2-phenylene diacetate] | 13 µM | 13 to 52 µM | 15 µM | 15 µM | 13 to 60 µM | 15 µM | 15 to 50 µM | 25 to 70 µM | 25 µM | 25 to 70 µM | 30 to 70 µM | 70 µM | 13 µM | 25 µM | IC50 ([7]; 72 hours incubation): 30 µM; Sensitivity to spontaneous autooxidation [10]: resistant to spontaneous autooxidation; Apoptosis and necrosis of U937 cells by flow cytometry (U937 cells): induce apoptosis and necrosis; Apoptosis and necrosis of normal human PBMC by flow cytometry (normal human PBMC): remained unaffected; In vivo efficacy against EAC tumor (viable cells from peritoneal cavity) [11]: effective in vivo in destroying EAC tumor
4 | CC(C)(C=NO)c1ccc(O)c(O)c1 [Compound 9, 2-(3,4-dihydroxyphenyl)-2-methylpropanal oxime] | 64 µM | – | 70 µM | 64 µM | – | – | 70 µM | 80 µM | – | 85 µM | 85 µM | 100 µM | – | – | –
5 | CC(C)(C#N)c1ccc(O)c(O)c1 [Compound 10, 2-(3,4-dihydroxyphenyl)-2-methylpropanenitrile] | 113 µM | – | 115 µM | 110 µM | – | – | – | 120 µM | – | 100 µM | 120 µM | 150 µM | 110 µM | – | –
6 | CC(=O)ON=CC(C)(C)c1ccc(OC(C)=O)c(OC(C)=O)c1 [Compound 12, 4-(1-(acetoxyimino)-2-methylpropan-2-yl)-1,2-phenylene diacetate] | 194 µM | – | 190 µM | 190 µM | – | – | 190 µM | 200 µM | – | 200 µM | – | 250 µM | 190 µM | – | –
7 | CCOC(=O)/C=C/C(C)(C)c1ccc(O)c(O)c1 [Compound 13, (E)-ethyl 4-(3,4-dihydroxyphenyl)-4-methylpent-2-enoate] | 50 µM | 13 to 52 µM | 45 µM | 50 µM | 13 to 60 µM | 45 µM | – | – | 70 µM | – | 30 to 70 µM | 75 µM | 45 µM | 70 µM | –
8 | C=CC(C)(C)c1ccc2c(c1)OCO2 [Compound 14, 5-(2-methylbut-3-en-2-yl)benzo[d][1,3]dioxole] | 657 µM | – | 650 µM | 670 µM | – | – | – | – | – | – | – | 800 µM | 670 µM | – | IC50 ([4]; Homo sapiens, MOLT-4, 72 hours incubation): 650 µM; IC50 ([5]; Homo sapiens): 670 µM; IC50 ([6]; Homo sapiens, MCF7, 72 hours incubation): 680 µM; IC50 ([7]; Homo sapiens, MIA PaCa-2, 72 hours incubation): 680 µM
9 | C=CCc1cccc(O)c1O [Compound 16, 3-allyl-benzene-1,2-diol] | 20 µM | 13 to 52 µM | 25 µM | 20 µM | 13 to 60 µM | 20 µM | 15 to 50 µM | 25 to 70 µM | – | 25 to 70 µM | 30 to 70 µM | 30 µM | 25 µM | 30 µM | –
10 | C=CCc1cccc(OC(C)=O)c1OC(C)=O [Compound 19, 3-allyl-1,2-phenylene diacetate] | 13 µM | – | 20 µM | 15 µM | – | – | 20 µM | 20 µM | – | 20 µM | 20 µM | 30 µM | 15 µM | – | –
